≈ marks a conversion by molar mass, not a printed value. Like-named read-outs stand apart in the source and are kept apart here.
How the values were obtained:
[1] = test system: Veillonella alcalescens 1; experiment: Susceptibility of anaerobic bacteria, agar dilution; type: cell-based; settings: read-out: 24 Hr. Minimum Inhibitory Concentration
Clostridium ramosum 1313 = experiment: as above; type: cell-based; settings: Thomasclavelia ramosa, 24 h; Clostridium ramosum 1313; read-out: 24 Hr. Minimum Inhibitory Concentration
[2] = test system: Bacteroides fragilis sp. thetaiotaomicron 1438; experiment: as above; type: cell-based; settings: Bacteroides fragilis, 24 h, read-out: 24 Hr. Minimum Inhibitory Concentration
[3] = test system: Propionibacterium acnes 79; experiment: as above; type: cell-based; settings: Cutibacterium acnes, 79, 24 h, read-out: 24 Hr. Minimum Inhibitory Concentration
[4] = test system: Peptococcus anaerobius 1428; experiment: as above; type: cell-based; settings: 24 h, read-out: 24 Hr. Minimum Inhibitory Concentration
[5] = test system: Clostridium innocuum 1373; experiment: as above; type: cell-based; settings: read-out: 24 Hr. Minimum Inhibitory Concentration
[6] = test system: Bacteroides fragilis sp. vulgatus 1211; experiment: as above; type: cell-based; settings: Bacteroides fragilis, 24 h, read-out: 24 Hr. Minimum Inhibitory Concentration
[7] = test system: Propionibacterium acnes 44; experiment: as above; type: cell-based; settings: read-out: 24 Hr. Minimum Inhibitory Concentration
[8] = test system: Clostridium perfringens 81; experiment: microbe, parasite or virus in culture; type: cell-based; settings: Clostridium perfringens, 81, 24 h, read-out: 24 Hr. Minimum Inhibitory Concentration
[9] = test system: Clostridium septicum bovine; experiment: Susceptibility of anaerobic bacteria, agar dilution; type: cell-based; settings: 24 h, read-out: 24 Hr. Minimum Inhibitory Concentration
Experimental: (§1) The susceptibility of anaerobic bacteria, both gram positive and gram negative, to a representative number of the novel compounds of this application was determined using the agar dilution method. The bacteria used were isolated from patients hospitalized at the Indiana University Medical Center. The isolates were identified in the anaerobe laboratory of the Medical Center by the criteria established by Dowell et al., Laboratory Methods in Anaerobic Bacteriology. Public Health Serv. Publ. No. 1803 (1968) [Center for Disease Control, Atlanta, Ga.]; and by Smith et al., The Pathogenic Anaerobic Bacteria, pages 96-136 (1968) [Charles C. Thomas, Publisher, Springfield, Ill.]. All the organisms were maintained in chopped meat glucose medium (Scott Labs) at room temperature.
(§2) The method used for the agar dilution tests was based on the studies of Sutter et al., Antimicrob. Ag. Chemother. 3, 188-193 (1973). The strains of anaerobic bacteria were grown in 16 × 120 mm. tubes for 16 to 18 hours in Thioglycolate medium without indicator--135C (Becton, Dickinson and Co.), to which was added 5 mcg. of hemin per milliliter prior to autoclaving, plus 1 mg. of sodium bicarbonate and 0.1 mcg. of filter-sterilized menadione per milliliter after autoclaving. The growth tubes for the bacteria Veillonella alcalescens were additionally supplemented with 5 mg. of sodium lactate per milliliter. The strains were adjusted to the turbidity of the No. 1 McFarland standard in Thioglycolate medium without indicator--135C containing an additional 0.13 percent Bacto-agar (Difco). Each strain was then applied to the surface of the petri plate (100 mm. × 15 mm.) by means of a replicator.
(§3) For the agar dilution studies, two-fold dilutions of the test compounds were prepared in deionized water to which was then added laked sheep blood and filter-sterilized menadione so the concentrations after the agar dilution were 5 percent and 10 mcg./ml. respectively. An equal volume of double strength Brucella agar (Becton, Dickinson and Co.) was mixed with each dilution in a water bath held at 50°C. and then poured onto the petri plates.
(§4) All of the procedures were done inside a plastic glove box, except for the incubation of the growth tubes and the pouring of the plates. After the plates hardened, they were put inside the glove box for a minimum of two hours before they were inoculated. Generally, the glove box procedures of Aranki et al., Applied Microbiology 17, 568-576 (1969), were followed, but the following modifications were used. Dry materials were introduced into the glove box by evacuating the lock to 28 inches of mercury and filling once with nitrogen gas, followed by evacuating in the same manner and filling with an 80 percent nitrogen plus 10 percent CO2 plus 10 percent hydrogen gas mixture. Liquid media and agar plates were introduced into the glove box by evacuating the lock to 10 inches of mercury and filling with gas four times. The nitrogen gas was used to fill the lock for the first two cycles of evacuation, with the gas mixture described above used for the final two fillings.
(§5) All the plates were incubated at 37°C. in Gas Pak jars (Becton, Dickinson and Co.) containing palladium-coated alumina catalysts (reactivated after each use). The results of the agar dilution tests were read after about 24 hours of incubation. The minimum inhibitory concentration (MIC) was recorded as the lowest concentration of test compound at which there was no growth.
(§6) The results of these in vitro tests are recorded in Charts 11 and 12 which follow. The test compounds are identified in the same manner as in the previous experiments. The antibiotics cephalothin and erythromycin were also run simultaneously with the novel compounds of this application, for comparison purposes, and the results are included in Charts 11 and 12 below.

[10] = test system: Clostridium septicum 1128; experiment: as above; type: cell-based; settings: 24 h, read-out: 24 Hr. Minimum Inhibitory Concentration
Experimental: as §1, §2, §3, §4, §5, §6

[11] = test system: Eubacterium aerofaciens 1235; experiment: as above; type: cell-based; settings: Collinsella aerofaciens, 1235, 24 h, read-out: 24 Hr. Minimum Inhibitory Concentration
[12] = test system: Bacteroides fragilis sp. fragilis 1936B; experiment: as above; type: cell-based; settings: Bacteroides fragilis, 24 h, read-out: 24 Hr. Minimum Inhibitory Concentration
Actinomyces bovis 13684 = experiment: as above; type: cell-based; settings: read-out: 24 Hr. Minimum Inhibitory Concentration
[13] = test system: Bacteroides fragilis sp. fragilis 1877; experiment: as above; type: cell-based; settings: Bacteroides fragilis, 24 h, read-out: 24 Hr. Minimum Inhibitory Concentration
[14] = test system: Peptostreptococcus intermedius 1264; experiment: as above; type: cell-based; settings: read-out: 24 Hr. Minimum Inhibitory Concentration
[15] = test system: Fusobacterium necrophorum 13859; experiment: as above; type: cell-based; settings: Fusobacterium necrophorum, 13859, 24 h, read-out: 24 Hr. Minimum Inhibitory Concentration
[16] = test system: Bacteroides fragilis sp. vulgatus 1563; experiment: as above; type: cell-based; settings: Bacteroides fragilis, 24 h, read-out: 24 Hr. Minimum Inhibitory Concentration
[17] = test system: Fusobacterium symbiosum 1470; experiment: as above; type: cell-based; settings: Fusobacterium, 1470, 24 h, read-out: 24 Hr. Minimum Inhibitory Concentration
Salmonella typhimurium = experiment: Control of infections caused by Salmonella typhimurium in chickens, subcutaneous (Experiment 2); type: in vivo; settings: Salmonella enterica, sc, 144 h, 6 days, read-out: Survival Ratio (converted)
Experimental: The efficacy of the novel compounds in the control of infections caused by Salmonella typhimurium in chickens was evaluated in the following manner.
The test was carried out using day-old chicks weighing approximately 35 g. each. The chicks were divided into groups of 5 chicks per each dosage level. A portion of the chicks received the test compound which was suspended in 0.2 ml. of polyethylene glycol 200 and administered subcutanusly in the neck. […] All the chicks were challenged with a 1:200 dilution of a culture of the organism, 0.1 ml. of the dilution being injected into each chick in the leg intramuscularly. […] The test compounds are identified in the same manner as set forth in Experiment 1.
In the chart, column 1 lists the compounds tested; column 2, the dosage of test compound in mg./kg.; and column 3, the survival ratio.

Pasteurella multocida = experiment: Efficacy against Pasteurella multocida infections in mice when administered by injection (Experiment 1); type: in vivo, Swiss mice; settings: ip, 2.5 mg./kg. i.p.
Experimental: The efficacy of the novel compounds against Pasteurella multocida infections in mice when administered by injection was studied.
Female Swiss mice weighing from 15 to about 20 g. were used. The test compound, 5.0 mg., was weighed out and dissolved in 0.5 ml. of dimethyl sulfoxide, and this solution was added to 9.5 ml. of sodium carboxymethylcellulose suspension. Groups of five mice each were injected intraperitoneally with 0.1 ml. each of the above-prepared test composition. This preparation gave a test rate of 2.5 mg. per kilo of body weight of mouse. The compounds were tested at 2.5, 5.0, or 7.5 mg. per kilo of body weight of mouse, and the test preparations for rates of 5.0 and 7.5 mg./kg. were prepared in a similar manner. Immediately after receiving the test compound, the mice were challenged using log10 dilutions of 10^-^4, 10^-^5, 10^-^6, and 10^-^7 of a 16 to 20-hour tryptose broth culture of Pasteurella multocida at 0.1 ml. per mouse subcutaneously. Similar groups of nontreated control mice were also challenged, the challenge being administered subcutaneously. The groups of mice were observed daily for mortality and the total mortality in treated groups compared with that which occurred in the nonmedicated control groups. Each test compound is identified by the number of the example describing its preparation.
In the chart, column 1 lists the test compound; column 2, the dosage of test compound in mg./kg. of mouse body weight; column 3, the dilution of the challenge organism; and column 4, the ratio of the number of mice surviving the test at each dosage and challenge dilution to the number of mice tested at each dosage and challenge dilution, called the survival ratio.

Row | Structure (SMILES) | MIC (Clostridium ramosum 1313) [µg/mL] | MIC [2] [µg/mL] | MIC [3] [µg/mL] | MIC [4] [µg/mL] | MIC [6] [µg/mL] | MIC [8] [µg/mL] | MIC [9] [µg/mL] | MIC [10] [µg/mL] | MIC [11] [µg/mL] | MIC [12] [µg/mL] | MIC [13] [µg/mL] | MIC [15] [µg/mL] | MIC [16] [µg/mL] | MIC [17] [µg/mL] | also measured
1 | CC(=O)OCC1=C(C(=O)O)N2C(=O)[C@@H](NC(=O)Cc3cccs3)[C@H]2SC1 [Cephalothin, cephalothin, reference compound] | 8 (≈ 20.2 µM) | 64 (≈ 161 µM) | 1 (≈ 2.52 µM) | 2 (≈ 5.04 µM) | 4 (≈ 10.1 µM) | 2 (≈ 5.04 µM) | 4 (≈ 10.1 µM) | 1 (≈ 2.52 µM) | 2 (≈ 5.04 µM) | > 128 | > 128 | < 0.5 | 8 (≈ 20.2 µM) | 64 (≈ 161 µM) | MIC ([1]; Veillonella parvula, 24 h, Veillonella alcalescens 1): < 0.5 µg/mL; MIC ([5]; 24 h, Clostridium innocuum 1373): 8 µg/mL (≈ 20.2 µM); MIC ([7]; Cutibacterium acnes, 44, 24 h): 2 µg/mL (≈ 5.04 µM); MIC (Actinomyces bovis 13684; 24 h, Actinomyces bovis 13684): 2 µg/mL (≈ 5.04 µM); MIC ([14]; Peptostreptococcus, 1264, 24 h): 1 µg/mL (≈ 2.52 µM)
2 | Cn1nc(-c2ncc([N+](=O)[O-])n2C)cc1N [Compound 3, 5-Amino-1-methyl-3-(1-methyl-5-nitro-2-imidazolyl)pyrazole] | 4 (≈ 18 µM) | < 0.125 | < 0.125 | < 0.125 | < 0.125 | < 0.125 | < 0.125 | < 0.125 | < 0.125 | < 0.125 | < 0.125 | < 0.125 | < 0.125 | < 0.125 | MIC ([1]; Veillonella parvula, 1, 24 h): < 0.125 µg/mL; MIC ([5]; [Clostridium] innocuum, 1373, 24 h): < 0.125 µg/mL; MIC ([7]; Cutibacterium acnes, 24 h, Propionibacterium acnes 44): 0.5 µg/mL (≈ 2.25 µM); MIC (Actinomyces bovis 13684; Actinomyces bovis, 13684, 24 h): < 0.125 µg/mL; MIC ([14]; 24 h, Peptostreptococcus intermedius 1264): 16 µg/mL (≈ 72 µM)
3 | CC(=O)N(C(C)=O)c1c(C#N)c(-c2ncc([N+](=O)[O-])n2C)nn1C [Compound 5, N-[4-Cyano-1-methyl-3-(1-methyl-5-nitro-2-imidazolyl)pyrazol-5-yl]diacetamide] |  |  |  |  |  |  |  |  |  |  |  |  |  |  | responders at 7.5 mg/kg (Salmonella typhimurium; 7.5 mg./kg. subcutaneous): 0%; responders at 15 mg/kg (Salmonella typhimurium; 15 mg./kg. subcutaneous): 0%; responders at 30 mg/kg (Salmonella typhimurium; 30 mg./kg. subcutaneous): 40%; responders at 60 mg/kg (Salmonella typhimurium; 60 mg./kg. subcutaneous): 45%; responders at 2.5 mg/kg (Pasteurella multocida; challenge dilution 10^-^4, read-out: Survival Ratio (converted)): 100%; responders at 2.5 mg/kg (Pasteurella multocida; challenge dilution 10^-^5, read-out: Survival Ratio (converted)): 90%; responders at 2.5 mg/kg (Pasteurella multocida; challenge dilution 10^-^6, read-out: Survival Ratio (converted)): 100%

— patent publication US3980794A, “Method for promoting growth of poultry with 3-(5-nitro-2-imidazolyl)pyrazoles” (Eli Lilly and Company, priority 1975, dated 1976)
